Key:
[1] = test system: LKLF/KLF2 gene; test: LKLF/KLF2 gene expression in HUVEC by reverse transcription and TaqMan analysis (ABI PRISM 7000); assay type: cell-based, human; conditions: for activities to promote the expression of LKLF/KLF2 gene (summary statement): cultured human cell system; for effect of added metabolite on the increase of LKLF/KLF2 gene expression by pitavastatin calcium: pitavastatin calcium 1 μmol/L in combination with MVA 100 μmol/L, FPP, GGPP or Cho 10 μmol/L, 8 hours
[2] = test system: LKLF/KLF2 gene; test: LKLF/KLF2 gene expression analysis in HUVEC by Human Genome Focus Array (GeneChip); assay type: cell-based; conditions: control 271
Description: Two days after inoculation of normal human umbilical vein endothelial cells (HUVEC) at 3×10^5 cells/10 cm dish, pitavastatin calcium (indicated as “Pit” in FIG. 1) was added to 1.1 μmol/L. Dimethyl sulfoxide, a solvent for pitavastatin calcium, was added to a control (final concentration: 0.0066 v/v %). Eight hours after the addition, total RNAs were extracted with “ISOGEN” (trade mark, product of NIPPON GENE CO., LTD.). The following procedures were conducted in accordance with the procedures manual of Affymetrix. Inc. Described specifically, following the methods known per se in the art, mRNA was isolated from each total RNA obtained above, and based on the mRNA, cDNA was synthesized. Further, biotin-labeled cRNA was synthesized by in vitro transcription. Subsequent to purification, the biotin-labeled cRNA was subjected to fragmentation by heat treatment to prepare fragmented cRNA for use in a gene expression analysis.
Gene expression analysis method: The fragmented cRNA was poured into “Human Genome Focus Array” (trade name, product of Affymetrix, Inc.), and hybridization was conducted at 45° C. for 16 hours. […] The information was analyzed by “GENECHIP SOFTWARE” (trade name, product of Affymetrix, Inc.) to effect a comparison in expression level.

Row | SMILES | activities to promote the expression of LKLF/KLF2 gene (summary statement) [1] | effect of added metabolite on the increase of LKLF/KLF2 gene expression by pitavastatin calcium ([1]; HUVEC) | also measured
1 | CSCC[C@H](NC(=O)c1ccc(NC[C@@H](N)CS)cc1-c1ccccc1)C(=O)O [FTI-276] | in possession of activities to promote the expression of LKLF/KLF2 gene |  | 
2 | COC(=O)[C@H](CC(C)C)NC(=O)c1ccc(NC[C@@H](N)CS)cc1-c1ccccc1 [GGTI-286] | in possession of activities to promote the expression of LKLF/KLF2 gene |  | 
3 | CC(C)CCC[C@@H](C)[C@H]1CC[C@H]2[C@@H]3CC=C4C[C@@H](O)CC[C@]4(C)[C@H]3CC[C@]12C [cholesterol] |  | not affected | 
4 | CC(C)=CCC/C(C)=C/CC/C(C)=C/COP(=O)(O)OP(=O)(O)O [farnesyl pyrophosphate] |  | reduced | 
5 | CC(C)=CCC/C(C)=C/CC/C(C)=C/CC/C(C)=C/COP(=O)(O)OP(=O)(O)O [geranylgeranyl pyrophosphate] |  | reduced | 
6 | C[C@@](O)(CCO)CC(=O)O [mevalonic acid] |  | reduced | 
7 | O=C(O)C[C@H](O)C[C@H](O)/C=C/c1c(C2CC2)nc2ccccc2c1-c1ccc(F)cc1 [pitavastatin calcium, (3R,5S,6E)-7-[2-cyclopropyl-4-(4-fluorophenyl)-3-quinolyl]-3,5-dihydroxy-6-heptenoic acid] | has activities to promote the expression of LKLF/KLF2 gene |  | expression of LKLF/KLF2 gene in HUVEC (expression level) with addition of GGPP ([2]; pitavastatin calcium 1.1 μmol/L plus geranylgeranyl pyrophosphate (GGPP), 8 hours): 355; expression of LKLF/KLF2 gene in HUVEC (expression level) ([2]; pitavastatin calcium 1.1 μmol/L, 8 hours after addition): 761; increase of expression of LKLF/KLF2 gene in comparison with the group added with no drug ([1]; HUVEC, 1 μmol/L alone, 8 hours after addition): 693%
